Experimental data taken from the supplement of paper PMC10307832.

Tests used:
Test in all cases: relative viability (nuclei count vs DMSO), 5 days (fraction); higher = more cells survive
PAC-1 + Linsitinib = compound: C=CCc1cccc(/C=N/NC(=O)CN2CCN(Cc3ccccc3)CC2)c1O [PAC-1] + C[C@]1(O)C[C@@H](c2nc(-c3ccc4ccc(-c5ccccc5)nc4c3)c3c(N)nccn32)C1 [Linsitinib] (partner 1 µM)
In short: (§1)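 Relative viability divides the nuclei count in treated wells by that in vehicle wells. Lung cancer cell lines were seeded in 1536-well plates, dosed by pin tool the next day, and fixed and stained after 5 days in one step with final 0.05% Triton X-100, 1% formaldehyde and 1 ug/ml Hoechst. Dosing was a single drug or a fixed anchor-drug dose plus five library-drug doses (not always all listed) in √10 steps, and values are medians of duplicate plates imaged at 4×.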

Ibrutinib + Dasatinib = compound: C=CC(=O)N1CCC[C@@H](n2nc(-c3ccc(Oc4ccccc4)cc3)c3c(N)ncnc32)C1 [Ibrutinib] + Cc1nc(Nc2ncc(C(=O)Nc3c(C)cccc3Cl)s2)cc(N2CCN(CCO)CC2)n1 [Dasatinib] (partner 0.075 µM)
In short: as §1

Ibrutinib + Navitoclax = compound: C=CC(=O)N1CCC[C@@H](n2nc(-c3ccc(Oc4ccccc4)cc3)c3c(N)ncnc32)C1 [Ibrutinib] + CC1(C)CCC(c2ccc(Cl)cc2)=C(CN2CCN(c3ccc(C(=O)NS(=O)(=O)c4ccc(N[C@H](CCN5CCOCC5)CSc5ccccc5)c(S(=O)(=O)C(F)(F)F)c4)cc3)CC2)C1 [Navitoclax] (partner 0.5 µM)
In short: as §1

BMX-IN-1 + OSI-027 = compound: C=CC(=O)Nc1cc(-n2c(=O)ccc3cnc4ccc(-c5ccc(NS(C)(=O)=O)cc5)cc4c32)ccc1C [BMX-IN-1] + COc1cccc2cc(-c3nc([C@H]4CC[C@H](C(=O)O)CC4)n4ncnc(N)c34)[nH]c12 [OSI-027] (partner 0.5 µM)
In short: as §1

Cell Line	relative viability (PAC-1 + Linsitinib; first compound 0.02 µM)	relative viability (PAC-1 + Linsitinib; first compound 0.06325 µM)	relative viability (PAC-1 + Linsitinib; first compound 0.2 µM)	relative viability (PAC-1 + Linsitinib; first compound 2 µM)	relative viability (Ibrutinib + Dasatinib; first compound 0.005 µM)	relative viability (Ibrutinib + Dasatinib; first compound 0.01581 µM)	relative viability (Ibrutinib + Dasatinib; first compound 0.05 µM)	relative viability (Ibrutinib + Dasatinib; first compound 0.1581 µM)	relative viability (Ibrutinib + Dasatinib; first compound 0.5 µM)	relative viability (Ibrutinib + Navitoclax; first compound 0.005 µM)	relative viability (Ibrutinib + Navitoclax; first compound 0.01581 µM)	relative viability (Ibrutinib + Navitoclax; first compound 0.05 µM)	relative viability (Ibrutinib + Navitoclax; first compound 0.1581 µM)	relative viability (Ibrutinib + Navitoclax; first compound 0.5 µM)	relative viability (BMX-IN-1 + OSI-027; first compound 0.02 µM)	relative viability (BMX-IN-1 + OSI-027; first compound 0.2 µM)	relative viability (BMX-IN-1 + OSI-027; first compound 0.6325 µM)	relative viability (BMX-IN-1 + OSI-027; first compound 2 µM)
COR-L 105	0.962	0.852	0.868	1.13	0.258	0.369	0.229	0.322	0.162	0.548	0.74	0.625	0.681	0.385	0.817	0.668	0.814	0.586
BEN	0.934	0.91	0.918	0.873	–	0.291	0.232	0.273	0.314	0.0796	0.0705	0.0699	0.0622	0.0639	0.319	0.282	0.294	0.31
NCI-H2023	0.642	0.615	0.512	0.876	0.578	0.546	0.532	0.55	0.516	1.02	0.919	0.884	1.07	0.871	0.448	0.434	0.418	0.244
UMC-11	0.997	1.03	0.996	1.04	0.417	0.411	0.485	0.548	0.486	0.308	0.305	0.292	0.298	0.374	0.571	0.578	0.491	0.488
NCI-H1755	1.01	1	0.94	0.982	0.478	0.365	0.444	0.484	0.383	0.988	1.02	–	1.09	0.952	0.685	0.787	0.765	0.721
NCI-H1666	0.986	0.789	0.983	0.891	0.841	0.807	0.803	0.896	0.706	0.762	0.806	0.521	1.06	0.451	0.948	1.01	0.843	0.951
NCI-H23	0.534	0.574	0.564	0.505	0.705	0.762	0.902	0.662	0.901	0.853	0.886	0.771	0.787	0.97	0.549	0.728	0.581	0.713
COR-L23	0.945	0.937	0.861	1.03	0.614	0.396	0.497	0.513	0.544	1.14	1	1.04	1.16	1.11	1.01	0.945	1.01	0.754
PC-14	0.967	1.03	0.91	0.925	–	0.228	0.209	0.312	0.0569	1.04	1.05	1.12	1.05	0.922	1.46	1.19	0.994	0.0726
LCLC-97TM1	–	0.196	0.196	0.165	0.951	0.804	0.973	0.703	0.782	0.486	0.561	0.474	0.398	0.377	0.585	0.66	0.542	0.628
HOP-62	1.01	0.927	0.977	0.939	0.664	0.517	0.708	0.563	0.648	1.16	1.11	1.16	1.07	1.2	1.01	1.16	1.03	0.817
NCI-H727	0.281	0.283	0.272	0.317	–	0.393	0.424	–	0.298	0.475	0.405	0.374	0.449	0.42	0.846	0.597	0.648	0.612
NCI-H1734	0.845	0.885	0.928	1.02	0.36	0.473	0.506	0.521	0.454	0.839	0.821	0.794	0.869	0.726	0.709	0.64	0.632	0.621
NCI-H1651	0.823	0.933	0.992	1.12	0.446	0.386	0.368	0.352	0.428	0.853	1.03	1.12	1	0.837	0.9	0.426	0.782	0.582
LK-2	0.49	0.807	0.537	0.621	–	0.273	0.278	0.224	0.293	–	0.7	0.851	0.956	0.75	0.219	0.188	0.187	0.242
NCI-H2009	1.16	1.21	1.17	1.15	0.3	0.254	0.319	0.267	0.386	1.13	1.12	1.22	1.21	1.16	0.689	0.651	0.639	0.386
NCI-H2347	0.97	1.02	0.894	0.986	–	0.298	0.274	0.188	0.302	0.898	0.724	0.846	0.729	0.717	0.39	0.356	0.525	0.38
NCI-H460	0.701	0.81	0.78	0.405	0.548	0.42	0.491	0.286	0.603	1.27	1.01	1.09	1.2	1.13	1.46	1.16	1.16	0.691
